{"source": "patent US9632090B2", "about": "“Compositions and methods for the identification, assessment, prevention and therapy of thymic lymphoma or hamartomatous tumours” (Dana-Farber Cancer Institute, Inc., priority 2007, dated 2017)", "key": {"[1]": {"assay": "DMBA carcinogen treatment, survival and tumor development", "type": "in vivo, mouse", "conditions": "treated at day 7", "method": "Littermate controls were analyzed for tumor-free survival. Animals were genotyped by PCR and allowed to age undisturbed in a maximum of 5 mice per cage with standard chow and water ad libitum in a standard light-day cycle. Mice were monitored three times a week and were sacrificed when moribund or if external tumors exceeded 2 cm in diameter and scored as a death in survival analysis. Those animals with cancer, as determined by histological analysis, were scored as an event in the tumor-free survival Kaplan-Meier analysis. For lung tumors, analysis of tumor load was carried out as done previously (Zhang et al., 2001).\nSeven-day old pups were treated with 5% 7,12-dimethylbenz-alpha-anthracene (DMBA) in acetone by pipetting 50 μl onto the back, and allowing it to air-dry. Mice were monitored three times a week for signs of morbidity and underwent full autopsies for tumor detection."}, "[2]": {"test_system": "thymocytes", "assay": "Thymocyte apoptosis / cell viability (propidium iodide, flow cytometry)", "type": "cell-based, mouse", "conditions": "1 μM, 18 hrs", "method": "For analysis of thymocytes, fresh thymus was passed through a cell strainer (Becton Dickinson) in order to produce single cell suspensions for analysis and resuspended in RPMI-1640 media containing 10% fetal calf serum. For thymocyte proliferation assays, cells were seeded in 96-well plates at 1×10^5 cells per well and subjected to the following conditions: no mitogen, PMA (1 ng/ml)+ionomycin (50 ng/ml), and 3 μg/ml anti-CD3e (eBioscience)+100 U IL-2. Cells were grown for 48 hours, pulsed with 1 μCi [3H]-thymidine (Amersham) for the last 16 hours. Incorporated [3H]-thymidine was measured using the 1450 MicroBeta Trilux Scintillation and Luminescence Counter. For analysis of apoptosis, thymocytes were plated in 12-well plates (1×10^6 cells per well) and treated with 5 Gy gamma-irradiation or 1 μM dexamethasone for 18 hours. Cell viability was determined by staining the cells with propidium iodide and performing flow cytometric analysis."}, "[3]": {"test_system": "lung ECs", "assay": "MTT viability assay, lung endothelial cells", "type": "cell-based, mouse", "method": "(§1) 100 ng/ml FGF, or 10% FBS."}, "[4]": {"test_system": "liver ECs", "assay": "MTT viability assay, liver endothelial cells", "type": "cell-based, mouse", "method": "as §1"}, "[5]": {"test_system": "liver ECs", "quoted_text": "Livers of Mx-Cre^+ or Mx-Cre^− mice injected with pI-pC 3 weeks prior were used for the isolation of liver ECs. Liver tissues were homogenized and digested in collagenase D and lysates were run through a cell strainer. ECs were enriched by taking the interphase of a 30% Histodenz (Sigma) and RPMI suspension of cells overlaid after spinning at 1500×g for 20 min. Cells were further affinity isolated by CD31-M450 prebound magnetic beads. […] VEGF and basic FGF were obtained from the Biological Resources Branch, NCI Preclinical Repository. Cells were grown in DMEM+0.5% BSA supplemented with 100 ng/ml VEGF. 100 ng/ml FGF, or 10% FBS. EC proliferation and apoptosis were measured with the BrdU labelling and detection kit (Roche) and the In situ cell death detection kit (Roche), respectively per the manufacturer's instruction. Viability of cells after various treatments was measured by MTT (2,3-bis-(2-methoxy-4-nitro-5-sulfophenyl)-2H-tetrazolium-5-carboxanilide) assays in 96 well plates. […] Vector (pLKO) alone and pLKO-GFP were used as controls to exclude non-specific responses. Cells were selected for 96 hrs with puromycin (1 μg/ml) and used for further assays."}, "[6]": {"test_system": "VEGF", "sequence (P15692 207-311 limits assumed)": "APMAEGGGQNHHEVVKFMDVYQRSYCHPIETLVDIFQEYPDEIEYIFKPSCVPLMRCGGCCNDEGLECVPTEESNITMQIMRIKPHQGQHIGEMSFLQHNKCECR", "conditions": "intravitreal, proliferative diabetic retinopathy, short term therapy; cited from earlier work"}}, "note": "Read-outs that look alike come from different tables or passages of the source."}
{"compound": "Cc1c2ccccc2c(C)c2c1ccc1ccccc12", "note": "[DMBA, 7,12-dimethylbenz-alpha-anthracene]", "values": [{"measurement": "median survival", "setting": "[1]; FoxO4+/+ mice", "result": 27.3, "unit": "weeks"}, {"measurement": "median survival", "setting": "[1]; FoxO4-/- mice", "result": 23.4, "unit": "weeks"}]}
{"compound": "C[C@@H]1C[C@H]2[C@@H]3CCC4=CC(=O)C=C[C@]4(C)[C@@]3(F)[C@@H](O)C[C@]2(C)[C@@]1(O)C(=O)CO", "note": "[dexamethasome, dexamethasone]", "values": [{"measurement": "survival", "setting": "[2]; Mx-Cre+ thymocytes", "result": "69.3±0.7", "unit": "% survival"}, {"measurement": "survival", "setting": "[2]; Mx-Cre- thymocytes", "result": "50.6±2.6", "unit": "% survival"}]}
{"compound": "TGF-β1: cytokine known to induce EC cytostasis through Smad signalling", "values": [{"measurement": "sensitivity to stimulation", "setting": "[3]; lung ECs irrespective of FoxO status", "result": "insensitive"}, {"measurement": "survival upon exposure", "setting": "[4]; Mx-Cre- liver ECs (reduced survival)", "result": "~60", "unit": "%"}, {"measurement": "survival upon exposure", "setting": "[4]; liver ECs, much less sensitive", "result": "~90", "unit": "%"}]}
{"compound": "VEGF", "values": [{"measurement": "increase in viability", "setting": "[3]; Mx-Cre+ lung ECs", "result": 47.2, "unit": "%"}, {"measurement": "increase in viability", "setting": "[3]; Mx-Cre- lung ECs", "result": 41.7, "unit": "%"}, {"measurement": "increase in viability (proliferation upon stimulation)", "setting": "[4]; Mx-Cre+ liver ECs", "result": 73.3, "unit": "%"}, {"measurement": "increase in viability (proliferation upon stimulation)", "setting": "[4]; Mx-Cre- liver ECs", "result": 17.9, "unit": "%"}, {"measurement": "tube length (VEGF-induced tube formation)", "setting": "[5]; Mx-Cre+ liver ECs", "result": "4123±318", "unit": "μm"}, {"measurement": "tube length (VEGF-induced tube formation)", "setting": "[5]; Mx-Cre- liver ECs", "result": "3229±285", "unit": "μm"}]}
{"compound": "bevacizumab: humanized anti-VEGF-A monoclonal antibody", "values": [{"measurement": "angiographic leaking", "setting": "[6]", "result": "complete resolution of angiographic leaking"}]}
